Measured values from patent publication US7754722B2, “Piperazine derivatives and methods of use” (Merck Serono SA, priority 2002, dated 2010).

molecular target: T1, FSH receptor (Homo sapiens, UniProt P23945); test: FSH assay: cAMP response element luciferase reporter in CHO cells expressing recombinant FSH receptor; type: cell-based; settings: agonist activity; CHO cells stably transfected with recombinant FSH receptor; luciferase luminescence; log-dose-response curves; incubation 37° C. for 3 hrs 30 min; read-out: ED50 (the source's name)
T1 construct: expressed in transfected cells; host or cells: CHO (Chinese Hamster Ovary) cells, stably transfected, carrying a cAMP response element-luciferase reporter
T1 sequence (P23945 18-695): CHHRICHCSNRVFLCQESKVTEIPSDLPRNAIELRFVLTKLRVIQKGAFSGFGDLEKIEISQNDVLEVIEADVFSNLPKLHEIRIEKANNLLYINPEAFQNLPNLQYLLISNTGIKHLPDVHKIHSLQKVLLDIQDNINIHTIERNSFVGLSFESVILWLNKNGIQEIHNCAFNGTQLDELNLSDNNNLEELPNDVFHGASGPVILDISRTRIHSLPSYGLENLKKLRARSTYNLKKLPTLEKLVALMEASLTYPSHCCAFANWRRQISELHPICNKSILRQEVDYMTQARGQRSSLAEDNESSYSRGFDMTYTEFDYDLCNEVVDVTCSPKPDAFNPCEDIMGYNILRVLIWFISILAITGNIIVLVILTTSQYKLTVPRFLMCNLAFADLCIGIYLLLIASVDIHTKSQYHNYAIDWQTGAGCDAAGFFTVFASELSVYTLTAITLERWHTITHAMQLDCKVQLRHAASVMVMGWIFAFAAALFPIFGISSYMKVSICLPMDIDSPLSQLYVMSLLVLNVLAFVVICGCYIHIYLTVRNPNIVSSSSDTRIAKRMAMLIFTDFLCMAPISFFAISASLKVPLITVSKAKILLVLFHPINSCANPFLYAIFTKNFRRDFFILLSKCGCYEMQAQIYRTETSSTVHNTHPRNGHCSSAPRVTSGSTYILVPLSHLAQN
Method: Compounds of the invention were tested in the following assay.
All compounds of the invention were stored in 96-well deepwell plates in DMSO at a nominal concentration of 10 μM. Compounds of the invention were screened for agonist activity at the FSH receptor using the recombinant FSH receptor stably transfected and expressed in Chinese Hamster Ovary Cells (CHO cells) essentially as described in the work by Kelton, et al. Molecular and Cellular Endocrinology, 1992, 89, 141-151). […] Thus an agonist at the FSH receptor increases cAMP in the cell which results in activation of the CREB (cAMP) response element binding protein). The substrate for the enzyme (Packard Instrument Company 800 Research Parkway, Meriden, Conn. 06450, USA) was added to the cells after appropriate incubation with the compounds or FSH and the amount of luciferase expressed was measured by quantitating the luminescence produced by the enzyme using a TopCount scintillation/luminescence counter running in single photon counting mode. A compound which acts as an agonist at the receptor should produce light from the treated cells in proportion to its concentration within the incubation. Luminescence should be saturable at high concentrations of the compound.
The compounds of the invention, in deepwell plates (Master plates) as indicated above were loaded on the robotic deck along with the appropriate number of assay plates and daughter plates. A 10 μl aliquot from each master plate was transferred to the corresponding daughter plate and 90 μl of DME/F12 was added and mixed within each well. 20 μl was then removed from the daughter plate and dispensed into the assay plate. After addition of an aliquot of FSH (equivalent to an EC100 response for this hormone to each of three wells on the plate, 80 μl of media (DME/F 12±2% serum) and 100 μl aliquot of cells (4×10^5/ml in the same media) were added and the plate incubated at 37° C. for 3 hrs 30 min. At this time the plate was removed from the incubator and media in each well was aspirated and the cells adhering to the bottom of the plate washed with 300 μl PBS containing 1 mM Ca^2+ and 1 mM Mg^2+. The PBS was aspirated and 100 μl PBS added to each well. 100 μl of Lucite (prepared as described by the manufacturer) was added to each well and the plate was shaken gently for 40 seconds prior to placement in the TopCount plate reader. After allowing 3.5 minutes for the plate to dark-adapt within the machine, the amount of luminescence generated was quantitated using Single Photon Counting mode. The data was transmitted electronically from the TopCount to the robot processing computer terminal and was renamed with an ID corresponding to the original master plate ID. […] LDR (log-dose-response) curves were generated for these compounds in CHO cells containing the FSH receptor and these curves were also compared with those in either cells expressing a different Gs linked receptor or in cells lacking any transfected receptor.

EC50 | SMILES
14000 nM | CCn1c(-c2ccncc2)nc2cc(NC(=O)[C@@H]3CN(CCCSC)CCN3S(=O)(=O)c3cccs3)ccc21 [4-(3-methylsulfanyl-propyl)-1-(thiophene-2-sulfonyl)-piperazine-2-carboxylic acid (1-ethyl-2-pyridin-4-yl-1H-benzoimidazol-5-yl)amide]
877 nM | CCNC(=O)N1CCN(S(=O)(=O)c2cccs2)[C@H](C(=O)Nc2ccc3c(c2)c2ccccc2n3CC)C1 [4-(thiophene-2-sulfonyl)-piperazine-1,3-dicarboxylic acid 1-ethylamide 3-[(9-ethyl-9H-carbazol-3-yl)amide]]
408 nM | CCOC(=O)CNC(=O)N1CCN(S(=O)(=O)c2cccs2)[C@H](C(=O)Nc2ccc3c(c2)c2ccccc2n3CC)C1 [{[3-(9-ethyl-9H-carbazol-3-ylcarbamoyl)-4-(thiophene-2-sulfonyl)-piperazine-1-carbonyl]-amino}acetic acid ethyl ester]
94 nM | CCCCCCCN1CCN(S(=O)(=O)c2cccs2)[C@H](C(=O)Nc2ccc3c(c2)nc(-c2cccnc2)n3CC)C1 [4-heptyl-1-(thiophene-2-sulfonyl)-piperazine-2-carboxylic acid (1-ethyl-2-pyridin-3-yl-1H-benzoimidazol-5-yl)-amide]
1200 nM | CCCCCCCN1CCN(S(=O)(=O)c2cccs2)C(C(=O)Nc2ccc3[nH]c4c(c3c2)CCNC4=O)C1 (stereo not drawn) [4-heptyl-1-(thiophene-2-sulfonyl)-piperazine-2-carboxylic acid (1-oxo-2,3,4,9-tetrahydro-1H-beta-carbolin-6-yl)amide]
1610 nM | CCn1c2ccccc2c2cc(NC(=O)[C@@H]3CN(C(=O)NCCOC)CCN3S(=O)(=O)c3cccs3)ccc21 [4-(thiophene-2-sulfonyl)-piperazine-1,3-dicarboxylic acid 3-[(9-ethyl-9H-carbazol-3-yl)-amide]1-{(2-methoxy-ethyl)-amide]]
1600 nM | CCc1cocc1CN1CCN(S(=O)(=O)c2cccs2)[C@H](C(=O)Nc2ccc3c(c2)c2ccccc2n3CC)C1 [4-(4-ethyl-furan-3-ylmethyl)-1-(thiophene-2-sulfonyl)-piperazine-2-carboxylic acid (9-ethyl-9H-carbazol-3-yl)-amide]
380 nM | CCCCCCN1CCN(S(=O)(=O)c2cccs2)[C@H](C(=O)Nc2ccc3c(c2)c2ccccc2n3CC)C1 [4-hexyl-1-(thiophene-2-sulfonyl)-piperazine-2-carboxylic acid (9-ethyl-9H-carbazol-3-yl) amide]
610 nM | CCOC(=O)CN1CCN(S(=O)(=O)c2cccs2)[C@H](C(=O)Nc2ccc3c(c2)c2ccccc2n3CC)C1 [3-(9-ethyl-9H-carbazol-3-ylcarbamoyl)-4-(thiophene-2-sulfonyl)-piperazin-1-yl] acetic acid ethyl ester]
40 nM | CCCCCCN1CCN(S(=O)(=O)c2cccs2)[C@H](C(=O)Nc2ccc3c(c2)nc(-c2cccnc2)n3CC)C1 [4-hexyl-1-(thiophene-2-sulfonyl)-piperazine-2-carboxylic acid (1-ethyl-2-pyridinyl-3-yl-1H-benzoimidazole-5-yl)-amide)]
1700 nM | CCn1c2ccccc2c2cc(NC(=O)[C@@H]3CN(CCCSC)CCN3S(=O)(=O)c3cccs3)ccc21 [4-(3-methylsulfanyl-propyl)-1-(thiophene-2-sulfonyl)-piperazine-2-carboxylic acid (9-ethyl-9H-carbazol-3-yl)-amide]
220 nM | CCCCCN1CCN(S(=O)(=O)c2cccs2)C(C(=O)Nc2ccc3[nH]c4c(c3c2)CCNC4=O)C1 (stereo not drawn) [4-pentyl-1-(thiophene-2-sulfonyl)-piperazine-2-carboxylic acid (1-oxo-2,3,4,9-tetrahydro-1H-beta-carbolin-6-yl)amide]
150 nM | CCCCCN1CCN(S(=O)(=O)c2cccs2)[C@H](C(=O)Nc2ccc3c(c2)nc(-c2cccnc2)n3CC)C1 [4-pentyl-1-thiophene-2-sulfonyl)-piperazine-2-carboxylic acid (1-ethyl-2-pyridin-3-yl-1H-benzoimidazol-5-yl)amide]
6250 nM | CCn1c2ccccc2c2cc(NC(=O)[C@@H]3CN(C(=O)NCCc4c[nH]cn4)CCN3S(=O)(=O)c3cccs3)ccc21 [4-(thiophene-2-sulfonyl)-piperazine-1,3-dicarboxylic acid 3-[(9-ethyl-9H-carbazol-3-yl)-amide] 1-{[2-(1H-imidazol-4-yl)-ethyl]-amide}]
3160 nM | CCCCCNC(=O)N1CCN(S(=O)(=O)c2cn(C)cn2)[C@H](C(=O)Nc2ccc3c(c2)c2ccccc2n3CC)C1 [4-(1-methyl-1H-imidazole-4-sulfonyl)-piperazine-1,3-dicarboxylic acid 3-[(9-ethyl-9H-carbazol-3-yl)-amide]1-pentylamide]
5000 nM | CCCCCNC(=O)N1CCN(S(=O)(=O)c2cccs2)[C@H](C(=O)Nc2cccc(-c3ccncc3)c2)C1 [4-(thiophene-2-sulfonyl)-piperazine-1,3-dicarboxyclic acid 1-pentylamide 3-[(3-pyridin-4-yl-phenyl)-amide]]
978 nM | CCCCCCN1CCN(S(=O)(=O)c2cccs2)[C@H](C(=O)Nc2ccc3[nH]c4c(c3c2)CCNC4=O)C1 [4-hexyl-1-(thiophene-2-sulfonyl)-piperazine-2-carboxylic acid (1-oxo-2,3,4,9-tetrahydro-1H-beta-carbolin-6-yl)-amide]
54 nM | CCCCCCCCN1CCN(S(=O)(=O)c2cccs2)[C@H](C(=O)Nc2ccc3c(c2)nc(-c2ccncc2)n3CC)C1 [4-octyl-1-(thiophene-2-sulfonyl)-piperazine-2-carboxylic acid (1-ethyl-2-pyridin-4-yl-1H-benzoimidazol-5-yl)amide]
6470 nM | CCn1c2ccccc2c2cc(NC(=O)[C@@H]3CN(C(=O)NCCCn4ccnc4)CCN3S(=O)(=O)c3cccs3)ccc21 [4-(thiophene-2-sulfonyl)-piperazine-1,3-dicarboxylic acid 3-[(9-ethyl-9H-carbazol-3-yl)-amide]1-[(3-imidazol-1-yl-propyl)-amide])]
403 nM | CCCCCNC(=O)N1CCN(S(=O)(=O)N(C)C)[C@H](C(=O)Nc2ccc3c(c2)c2ccccc2n3CC)C1 [4-dimethylsulfamoyl-piperazine-1,3-dicarboxylic acid 3-[(9-ethyl-9H-carbazol-3-yl)-amide]1-pentylamide]
402 nM | CCCCC(=O)N1CCN(S(=O)(=O)c2cccs2)[C@H](C(=O)Nc2ccc3c(c2)c2ccccc2n3CC)C1 [4-pentanoyl-1-(thiophene-2-sulfonyl)-piperazine-2-carboxylic acid (9-ethyl-9H-carbazol-3-yl) amide]
167 nM | CCCCCCN1CCN(S(=O)(=O)c2ccc(F)cc2)[C@H](C(=O)Nc2ccc3c(c2)nc(-c2cccnc2)n3CC)C1 [1-(4-fluoro-benzenesulfonyl)-4-hexyl-piperazine-2-carboxylic acid (1-ethyl-2-pyridin-3-yl-1H-benzoimidazol-5-yl)amide]
242 nM | CCCCCCN1CCN(S(=O)(=O)N(C)C)C(C(=O)Nc2ccc3c(c2)nc(-c2cccnc2)n3CC)C1 (centres unmarked) [1-dimethylsulfamoyl-4-hexyl-piperazine-2-carboxylic acid (1-ethyl-2-pyridin-3-yl-1H-benzoimidazol-5-yl) amide]
